The target in assay [1] is T1, Adenylate cyclase (Rattus norvegicus) (UniProt D4A3N4+P26770+Q04400+P26769+Q03343+P40146+Q8CFM9+P21932). The assay is described as follows: Ability (250 uM) to stimulate dopamine sensitive adenylate cyclase from rat corpus striatum in the presence of excess ATP. It counts as functional.
Assay [2] has as its target T1, Adenylate cyclase (Rattus norvegicus). Kind of assay: Ability (50 uM) to stimulate dopamine sensitive adenylate cyclase from rat corpus striatum in the presence of excess ATP. It counts as functional.

As to `CN1CCc2cc(O)cc3c2[C@@H]1Cc1ccc(O)c(O)c1-3`, the Cyclase stimulation in assay [1] is 9%.

For the molecule `CN1CCc2cc(O)cc3c2[C@H]1Cc1ccc(O)c(O)c1-3`, the Cyclase stimulation in assay [1] was 59%.

In the case of `CN1CCc2cccc3c2[C@H]1Cc1ccc(O)c(O)c1-3`, the Cyclase stimulation in assay [2] was found to be 48%.

In the case of `NCCc1ccc(O)c(O)c1`, the Cyclase stimulation in assay [2] stood at 58%.

These data come from ChEMBL document CHEMBL1122119.
